Entries after “also recorded” stand apart in the source; their conditions may differ.

This passage reports IC50 results from BindingDB's records for patent US11814384 (Kinnate Biopharma, 2023).

The test addresses Serine/threonine-protein kinase B-raf (Homo sapiens, UniProt P15056). Nature of the test: Enzymatic BRAF Kinase Activity Assay. The protocol:
Small molecule inhibition of the BRAF kinases was measured using ADP-Glo assay. In the assay, […], resulting in luciferase reaction and luminescent readout with light generated proportional to the relative kinase activity. Compounds diluted in DMSO were used in 10-point, 3-fold dose curve for both assays. Final concentrations of 6 nM BRAF (CarnaBio, Cat. 09-122) or 3 nM RAF1 (CarnaBio, Cat. 09-125) and 30 nM MEK1 substrate (Millipore, Cat. 14-420) were incubated with 3 µM ATP, 10 mM MgCl2, 0.003% Brij-35, 2 mM DTT, 0.05% BSA, 1 mM EGTA, and 50 mM HEPES for 90 minutes at room temp prior to addition of ADP-Glo reagent (Promega, Cat. V9102) for 40 minutes, and detection reagent for 45 minutes. Luminescence was read on an Envision plate reader (PerkinElmer) and percent remaining activity was used to calculate IC50 using a four-parameter fit model using Dotmatics Knowledge Solutions Studies curve fitting (Dotmatics, Bishops Stortford, UK, CM23).

Chain of Serine/threonine-protein kinase B-raf (P15056 whole entry): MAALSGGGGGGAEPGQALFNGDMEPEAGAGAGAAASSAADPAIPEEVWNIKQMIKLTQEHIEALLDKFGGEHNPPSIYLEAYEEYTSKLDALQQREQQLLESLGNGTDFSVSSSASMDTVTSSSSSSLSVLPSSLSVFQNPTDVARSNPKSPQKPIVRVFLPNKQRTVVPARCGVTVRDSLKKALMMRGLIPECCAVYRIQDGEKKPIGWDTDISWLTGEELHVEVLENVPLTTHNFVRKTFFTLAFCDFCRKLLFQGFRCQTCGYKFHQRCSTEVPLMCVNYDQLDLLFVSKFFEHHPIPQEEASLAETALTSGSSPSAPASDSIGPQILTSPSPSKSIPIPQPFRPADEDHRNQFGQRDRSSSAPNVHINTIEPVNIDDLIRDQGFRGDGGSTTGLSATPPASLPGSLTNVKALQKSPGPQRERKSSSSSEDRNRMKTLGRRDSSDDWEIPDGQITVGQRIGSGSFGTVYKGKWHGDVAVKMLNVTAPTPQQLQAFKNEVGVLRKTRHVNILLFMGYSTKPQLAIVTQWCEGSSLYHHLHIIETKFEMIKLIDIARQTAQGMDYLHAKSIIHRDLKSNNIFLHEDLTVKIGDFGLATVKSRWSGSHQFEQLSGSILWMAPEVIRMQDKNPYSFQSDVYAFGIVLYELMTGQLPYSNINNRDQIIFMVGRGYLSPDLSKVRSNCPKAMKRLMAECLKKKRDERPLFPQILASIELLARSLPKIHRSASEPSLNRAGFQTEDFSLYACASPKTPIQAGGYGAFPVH

`Cc1cn2cc(-c3cc(NC(=O)c4cn(C(C)(C)C)c(F)n4)c(F)cc3C)cc(N3CCOCC3)c2n1` [US11814384, Example 148]: the IC50 (as a rule, the midpoint of a concentration-inhibition curve) was “in the range around 5.5 nM”.

Regarding `Cc1cc(F)c(NC(=O)c2ccnc(C(C)C(F)F)c2)cc1-c1cc(N2CCOCC2)c2nccn2c1` (centres undefined) [US11814384, Example 113], the IC50 result was “in the range around 5.5 nM”.

`Cc1cnc(NC(=O)c2cnn(C(C)(C)C)c2F)cc1-c1cc(N2CCOCC2)c2nccn2c1` [US11814384, Example 138]: the concentration for half-maximal inhibition (IC50) entry was “in the range around 5.5 nM”. Take `Cc1cc(F)c(NC(=O)c2cn(C(C)(C)C)cn2)cc1-c1cc(N2CCOCC2)c2nccn2c1` [US11814384, Example 67]: the IC50 entry is “in the range around 5.5 nM”. Consider `Cc1cn2nc(-c3cc(NC(=O)c4cnn(C(C)(C)C)c4F)c(F)cc3C)cc(N3CCOCC3)c2n1` [US11814384, Example 265], for which the IC50 result is “in the range around 5.5 nM”. As for `Cc1cc(F)c(NC(=O)c2cnn(C(C)(C)C)c2F)cc1-c1cc(N2CCOCC2)c2ncnn2c1` [US11814384, Example 181], the entry is “in the range around 5.5 nM”. In the case of `Cc1cc(F)c(NC(=O)N2CC[C@@H](CC(F)(F)F)C2)cc1-c1cc(N2CCOCC2)c2nn(C)cc2c1` [US11814384, Example 1] it was “in the range around 5.5 nM”; in that of `Cc1cc(F)c(NC(=O)c2nn(C(C)(C)C)cc2F)cc1-c1cc(N2CCOCC2)c2nccn2c1` [US11814384, Example 141], “in the range around 5.5 nM”. As for `Cc1cc(F)c(NC(=O)N2CCC(C(C)C(F)F)C2)cc1-c1cc(N2CCOCC2)c2nccn2c1` (centres undefined) [US11814384, Example 87], the IC50 entry was “in the range around 5.5 nM; also recorded: in the range around 55 nM”. `CC(C)(C)n1cc(C(=O)Nc2cc(-c3cc(N4CCOCC4)c4nccn4c3)c(Cl)cc2F)nc1F` [US11814384, Example 151]: the IC50 entry was “in the range around 5.5 nM”.

In the case of `Cc1ccc(NC(=O)N2CC[C@@H](CC(F)(F)F)C2)cc1-c1cc(N2CC3CCC(C2)O3)c2nccn2c1` [US11814384, Example 38], the IC50 result is “in the range around 5.5 nM”.

On to `Cc1c(-c2cc(N3CCOCC3)c3nccn3c2)cc(NC(=O)c2cnn(C(C)(C)C)c2F)c(F)c1F` [US11814384, Example 159], for which the IC50 entry is “in the range around 5.5 nM”. Regarding `Cc1cn2cc(-c3cc(NC(=O)c4cn(C(C)(C)C)cn4)c(F)cc3C)cc(N3CCOCC3)c2n1` [US11814384, Example 140], the IC50 entry was “in the range around 5.5 nM”. In the case of `Cc1cc(F)c(NC(=O)c2cnn(C(C)(C)C)c2F)cc1-c1cc(N2CCOCC2)c2nc(C)c(F)n2c1` [US11814384, Example 273], the IC50 entry is “in the range around 5.5 nM”.

In the case of `Cc1cc(F)c(N)cc1-c1cc(N2CCOCC2)c2nccn2c1` [US11814384, Example 112], the IC50 entry was “in the range around 55 nM”.

In the case of `Cc1cc(F)c(C(=O)Nc2cnn(C(C)(C)C)c2F)cc1-c1cc(N2CCOCC2)n2nc(C3CC3)nc2c1` [US11814384, Example 307], the IC50 result was “in the range around 5.5 nM”. With `CC(C)(C)n1ncc(C(=O)Nc2ccc(Cl)c(-c3cc(N4CCOCC4)c4nccn4c3)c2)c1F` [US11814384, Example 110], the IC50 entry is “in the range around 5.5 nM”.

For the compound `Cc1cc(F)c(NC(=O)c2cnn(C(C)(C)C)c2F)cc1-c1cc(N2CCOCC2)c2nccn2c1` [US11814384, Example 103], the IC50 entry is “in the range around 5.5 nM”. In the case of `Cc1ccc(NC(=O)c2ccnc(C(F)(F)F)c2)cc1-c1cc(N2CCOCC2)c2nc3c(n2c1)CCOC3` [US11814384, Example 36] it was “in the range around 5.5 nM”; in that of `Cc1ccc(NC(=O)c2cc(C(C)(C)C)ncc2F)cc1-c1cc(N2CCOCC2)c2nccn2c1` [US11814384, Example 95], “in the range around 55 nM”; in that of `CCc1nc2cc(-c3cc(C(=O)Nc4cn(C(C)(C)C)nc4F)c(F)cc3C)cc(N3CCOCC3)n2n1` [US11814384, Example 76], “in the range around 5.5 nM”. For `Cc1cc(F)c(NC(=O)c2ccnc(N(C)C(F)(F)F)c2)cc1-c1cc(N2CCOCC2)c2nccn2c1` [US11814384, Example 263], the IC50 entry was “in the range around 5.5 nM”.

Turning to `Cc1nc2c(N3CCOCC3)cc(-c3cc(NC(=O)c4cnn(C(C)(C)C)n4)c(F)cc3C)cn2n1` [US11814384, Example 303], the IC50 entry is “in the range around 5.5 nM”. On to `Cc1cn2cc(-c3cc(NC(=O)c4cnn(C(C)(C)C)c4F)c(F)cc3C)cc(N3CCOCC3)c2n1` [US11814384, Example 143], for which the IC50 entry was “in the range around 5.5 nM”. As for `Cc1cc(F)c(NC(=O)N2CC=C(C3(C)CC3)C2)cc1-c1cc(N2CCOCC2)c2nccn2c1` [US11814384, Example 69], the entry is “in the range around 5.5 nM”. As for `Cc1ccc(NC(=O)c2cnn(C(C)(C)C)c2F)cc1-c1cc(N2CCOCC2)c2nc(C)c(F)n2c1` [US11814384, Example 274], the entry is “in the range around 5.5 nM”; as for `Cc1nc2c(N3CCOCC3)cc(-c3cc(C(=O)Nc4cn(C5(C)CC5)nc4F)c(F)cc3C)cn2n1` [US11814384, Example 310], “in the range around 5.5 nM”; as for `Cc1cc(F)c(NC(=O)N2CC[C@@H](CC(F)(F)F)C2)cc1-c1cc(N2CCOCC2)c2nn(C)c(C)c2c1` [US11814384, Example 16], “in the range around 5.5 nM”. As for `Cc1cc(F)c(C(=O)Nc2cnn(C(C)(C)C)c2)cc1-c1cc(N2CCOCC2)c2nccn2c1` [US11814384, Example 204], the entry is “in the range around 5.5 nM”; as for `Cc1cc(F)c(NC(=O)c2cn(C(C)(C)C)c(F)n2)cc1-c1cc(N2CCOCC2)c2nccn2c1` [US11814384, Example 118], “in the range around 5.5 nM”; as for `Cc1nc2cc(-c3cc(NC(=O)c4coc(C(C)(C)C)n4)c(F)cc3C)cc(N3CCOCC3)n2n1` [US11814384, Example 292], “in the range around 55 nM”. Turning to `Cc1ncc(NC(=O)c2cnn(C(C)(C)C)c2F)cc1-c1cc(N2CCOCC2)c2nccn2c1` [US11814384, Example 137], the IC50 result is “in the range around 5.5 nM”. With `Cc1cc(F)c(NC(=O)c2cnn(C(C)(C)C)c2F)cc1-c1cc(N2CCOCC2)c2ncc(F)n2c1` [US11814384, Example 111], the 50% inhibitory concentration (IC50) entry is “in the range around 55 nM”. Take `Cc1cc(F)c(NC(=O)c2cnn(C(C)(C)C)n2)cc1-c1cc(N2CCOCC2)c2nccn2c1` [US11814384, Example 186]: the IC50 result was “in the range around 5.5 nM”. For `Cc1cc(F)c(NC(=O)N2CCC(C(C)(C)C(F)(F)F)C2)cc1-c1cc(N2CCOCC2)c2nccn2c1` (centres undefined) [US11814384, Example 74], the IC50 entry is “in the range around 5.5 nM”. `Cc1cc(F)c(NC(=O)c2cncc(C(F)(F)F)c2)cc1-c1cc(N2CCOCC2)c2nccn2c1` [US11814384, Example 70]: the IC50 result was “in the range around 5.5 nM”. In the case of `Cc1cc(F)c(NC(=O)c2ccnc(C34CC(C3)C4)c2)cc1-c1cc(N2CCOCC2)c2nccn2c1` [US11814384, Example 188] it was “in the range around 5.5 nM”; in that of `Cc1nc2cc(-c3cc(C(=O)Nc4cnn(C(C)(C)C)c4F)c(F)cc3C)cc(N3CCOCC3)n2n1` [US11814384, Example 283], “in the range around 5.5 nM”; in that of `Cc1cc(F)c(NC(=O)N2CCOC(C(C)(C)C)C2)cc1-c1cc(N2CCOCC2)c2nccn2c1` (centres undefined) [US11814384, Example 50], “in the range around 5.5 nM”.

In the case of `Cc1ccc(NC(=O)c2cnn(C(C)(C)C)c2F)cc1-c1cc(N2CCOCC2)c2nccn2c1` [US11814384, Example 73], the IC50 entry is “in the range around 5.5 nM”. In the case of `Cc1cc(F)c(C(=O)Nc2cnn(C(C)(C)C)c2F)cc1-c1cc(N2CCOCC2)c2nccn2n1` [US11814384, Example 260] it was “in the range around 5.5 nM”; in that of `Cc1cc(F)c(NC(=O)N2CC(F)C(C(C)C)C2)cc1-c1cc(N2CCOCC2)c2nccn2c1` (centres undefined) [US11814384, Example 119], “in the range around 5.5 nM”.

Consider `Cc1nc2c(N3CCOCC3)cc(-c3cc(NC(=O)c4cnc(C(C)(C)C)o4)c(F)cc3C)cn2n1` [US11814384, Example 293], for which the IC50 result is “in the range around 5.5 nM”. For the compound `Cc1cc(F)c(NC(=O)c2ccnc(N3CCCC3)c2)cc1-c1cc(N2CCOCC2)c2nccn2c1` [US11814384, Example 166], the IC50 entry is “in the range around 5.5 nM”.

Consider `Cc1cc(F)c(NC(=O)c2coc(C(C)(C)C)n2)cc1-c1cc(N2CCOCC2)c2nccn2c1` [US11814384, Example 184], for which the IC50 result is “in the range around 5.5 nM”. Take `Cc1cc(F)c(C(=O)Nc2cnn(C(C)(C)C)c2F)cc1-c1cc(N2CCOCC2)c2nc(N(C)C)nn2c1` [US11814384, Example 309]: the IC50 entry was “in the range around 5.5 nM”. In the case of `Cc1cc(F)c(NC(=O)c2cnn(C(C)(C)C(F)(F)F)c2)cc1-c1cc(N2CCOCC2)c2nccn2c1` [US11814384, Example 136], the IC50 result was “in the range around 5.5 nM”.

Turning to `Cc1cc(F)c(NC(=O)c2cnn(C(C)(C)C)c2F)cc1-c1cc(N2CCOCC2)n2nccc2c1` [US11814384, Example 162], the IC50 entry was “in the range around 5.5 nM”. In the case of `Cc1cc(F)c(NC(=O)c2cnn(C(C)(C)C)c2F)cc1-c1cn2ccnc2c(N2CCOCC2)n1` [US11814384, Example 228] it was “in the range around 5.5 nM”.
